Source: patent US12378235B2, “HCK inhibitors for the treatment of fibrosis and cancer” (Icahn School of Medicine At Mount Sinai, priority 2019, dated 2025)
“And” between values parts separate entries of the source, which are not always exact repeats. Equal values may be shown once. Read-outs that look alike come from different tables or passages of the source.

Tests used:
HK2 cells [1] = experiment: Anti-fibrosis effect: mRNA levels of fibrosis markers by RT-PCR in HK2 cells; assay type: cell-based; details: for mRNA levels of fibrosis markers: FIG. 3A and FIG. 3B
Protocol: Anti-fibrosis effect was investigated by fibrosis markers in mRNA level. […] The mRNA levels of Veminten, FN1 and A-Sma were not affected. HK2 cells were treated with HCK inhibitor Examples 4, 7, and 8 at 10 uM and 20 uM overnight and then stimulated with TGF-beta for 8 hours. mRNA-levels of profibrotic markers by RT-PCR (normalized to GAPDH) from mRNA isolated in the cells. Values are mean±SEM; *P=0.05, […], ***P<0.001 between means; one-way ANOVA with Bonferroni multiple comparison test (FIG. 2B). Finally, it was shown that Examples 7, 8, and 13 reduced the mRNA levels of fibrosis markers (FIG. 3A and FIG. 3B).

HCK = biological target: T1, HCK (Homo sapiens, UniProt P08631); experiment: P32 radioactive kinase assay (Reaction Biology Corp), HCK activity inhibition; assay type: biochemical; details: for remaining activity at 1 µM: 1 μM compound, read-out: % Enzyme Activity (relative to DMSO controls) HCK (1 μM); for remaining activity at 50 µM: 50 μM compound, read-out: % Enzyme Activity (relative to DMSO controls) HCK (50 μM)
T1 construct: purchased Reaction Biology Corp
Protocol: HCK activity inhibition efficiency for the inhibitors. Inhibiting efficiency was performed in Reaction Biology with Corp P32 radioactive kinase assay, comparing the compounds of the invention with dasatinib for HCK, Bcr-Abl and other binding kinases identified in reference. Most of the HCK inhibitors of the invention tested have IC50 of HCK activity at about 50 uM concentrations.
HCK inhibiting efficiency was performed in Reaction Biology with Corp P32 radioactive kinase assay. Briefly, HCK kinase was delivered into the substrate solution and gently mixed, then compounds in DMSO were added into the kinase reaction mixture by Acoustic technology (Echo550; Nano liter range), and incubated for 20 minutes at room temperature. 33P-ATP was delivered into the reaction mixture to initiate the reaction. The kinase reaction was incubated for 2 hours at room temperature. Reactions were spotted onto P81 ion exchange paper, and detected kinase activity was measured by filter-binding method.

HK2 cells [2] = experiment: CellTiter 96 AQueous One Solution Cell Proliferation Assay (MTS) in HK2 cells; assay type: cell-based; details: Homo sapiens, HK-2, 24 hours treatment, MTS (FIG. 1), read-out: concentration that inhibits 50% of HK2 cell proliferation
Text: HCK inhibitors reduce cell proliferation. Excessive HCK activation is associated with several types of leukemia and enhances cell proliferation and survival by physical association with oncogenic fusion proteins, and with functional interactions with receptor tyrosine kinases. Elevated HCK activity is also observed in many solid malignancies, including breast and colon cancer, and correlates with decreased patient survival rates. HCK enhances the secretion of growth factors and pro-inflammatory cytokines from myeloid cells and promotes macrophage polarization towards a wound healing and tumor-promoting alternatively activated phenotype. Inhibition of HCK activity, therefore, should inhibit cancerous cell's proliferation. Compounds of the invention were measured for inhibition of cell proliferation with CellTiter 96® AQueous One Solution Cell Proliferation Assay (MTS) from Promega in HK2 cells. The compounds of the invention were diluted to serial concentrations. HK2 cells were cultured in 10% FBS and 1% P/S. The cells were treated with the compounds of the invention for 24 hours and then 20 μl/well of CellTiter 96® AQueous One Solution Reagent was added. Values were normalized to the percentages relative to DMSO controls. Values shown are mean±SEM.

SMAD = SMAD binding activity in HK2 cells; assay type: cell-based
Text: Inhibition of HCK affects SMAD binding activity. Transforming growth factor-β(TGF-β) is the primary factor that drives fibrosis in most, if not all, forms of chronic kidney disease (CKD). TGF-β1 can induce renal fibrosis via activation of both canonical (Smad-based) and non-canonical (non-Smad-based) signalling pathways, which result in activation of myofibroblasts, excessive production of extracellular matrix (ECM) and inhibition of ECM degradation. The role of Smad proteins in the regulation of fibrosis is complex, with competing profibrotic and antifibrotic actions (including in the regulation of mesenchymal transitioning), and with complex interplay between TGF-β/Smads and other signalling pathways.

LDH cytotoxicity assay = assay type: cell-based; details: different dosages, up to very high dose of 50 uM
Protocol: LDH cytotoxicity assay for HCK inhibitors cytotoxicity. Toxicity refers to how poisonous or harmful a substance can be. In the context of pharmacology, drug toxicity occurs when a person has accumulated too much of a drug in his bloodstream, leading to adverse effects on the body. Drug toxicity may occur when the dose given is too high or the liver or kidneys are unable to remove the drug from the bloodstream, allowing it to accumulate in the body. Drug toxicity was measured with LDH cytotoxicity assay with different dosages of compounds of the invention.

[3] = HK2 cells treated with 5, 10, 20 uM (FIG. 2A)
[4] = second of two replicate columns

T1 sequence (P08631 whole entry): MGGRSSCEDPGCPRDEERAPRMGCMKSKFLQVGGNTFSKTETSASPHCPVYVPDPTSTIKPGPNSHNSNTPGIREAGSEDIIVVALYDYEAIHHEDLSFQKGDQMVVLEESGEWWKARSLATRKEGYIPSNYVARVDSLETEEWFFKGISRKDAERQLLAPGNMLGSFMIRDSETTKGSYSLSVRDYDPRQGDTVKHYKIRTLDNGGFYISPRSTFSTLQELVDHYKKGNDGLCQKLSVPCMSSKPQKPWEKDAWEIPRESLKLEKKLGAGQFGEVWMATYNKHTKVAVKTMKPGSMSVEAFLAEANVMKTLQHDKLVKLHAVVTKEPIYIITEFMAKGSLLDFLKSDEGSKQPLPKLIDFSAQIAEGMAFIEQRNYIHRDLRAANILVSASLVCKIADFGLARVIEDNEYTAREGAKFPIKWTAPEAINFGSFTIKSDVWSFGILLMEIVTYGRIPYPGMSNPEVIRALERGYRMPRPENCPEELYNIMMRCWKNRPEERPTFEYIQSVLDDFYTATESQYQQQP

Compound | mRNA levels of Veminten, FN1 and A-Sma (HK2 cells [1]; [3]) | mRNA levels of fibrosis markers collagen1, Snail, Mmp2 and Slug(Snail2) (HK2 cells [1]; [3]) | IC50 (HCK) | IC50 (HK2 cells [2]) [µM] | mRNA levels of fibrosis markers (HK2 cells [1]) | remaining activity at 1 µM (HCK; first of two replicate columns) [%] | remaining activity at 1 µM (HCK; [4]) [%] | remaining activity at 50 µM (HCK; first of two replicate columns) [%] | remaining activity at 50 µM (HCK; [4]) [%] | SMAD activity in HK2 cells (SMAD) | cytotoxicity (LDH assay) (LDH cytotoxicity assay)
COc1cc(-c2nnc3n2N=C(c2ccc(Br)cc2)CS3)cc(OC)c1OC [Example 4] | not affected | affected | < 50 µM and 30 µM |  |  |  |  |  |  |  | 
CCOC(=O)c1cnc(NC(=O)c2cc3cc(Cl)ccc3oc2=O)s1 [Example 7] |  |  | < 50 µM | 10 | reduced | 104 | 114 | 42.8 | 45 |  | 
CCOC(=O)c1cnc(NC(=O)c2cc3cc(Cl)ccc3[nH]c2=O)s1 [Example 8] |  |  | < 50 µM | 0.5 | reduced | 108 | 116 | 41.2 | 43.9 | reduce SMAD activity | 
CCOC(=O)c1cnc(NC(=O)c2ccc(B3OC(C)(C)C(C)(C)O3)cc2)s1 [Example 9] |  |  |  |  |  | 110 | 115 | 95 | 86.3 |  | 
CCOC(=O)c1cnc(NC(C#N)c2ccc(B3OC(C)(C)C(C)(C)O3)cc2)s1 (centres unmarked) [Example 10] |  |  |  |  |  | 104 | 99.4 | 89.1 | 96.5 |  | 
CCOC(=O)c1cnc(NC(C#N)c2ccc(B(O)O)cc2)s1 (centres unmarked) [Example 11] |  |  |  |  |  | 93.5 | 103 | 74.5 | 68.5 |  | 
CCOC(=O)c1cnc(NC(C#N)C2=Cc3cc(Cl)cc(Cl)c3OC2c2ccccc2)s1 (centres unmarked) [Example 12] |  |  | < 50 µM | 10 |  | 108 | 113 | 75.9 | 79.5 | reduce SMAD activity | some cytotoxicity at very high dose of 50 uM
CCOC(=O)c1cnc(NC(C#N)c2cc(-c3ccccc3)on2)s1 (centres unmarked) [Example 13] |  |  | < 50 µM | 10 | reduced | 109 | 113 | 68.4 | 65.5 |  | 
CCOC(=O)c1cnc(NC(=O)/C=C/c2ccccc2)s1 [Example 14] |  |  |  |  |  | 112 | 118 | 93.6 | 94.2 |  | 
CCOC(=O)c1cnc(NC(=O)C2=Cc3cc(Cl)cc(Cl)c3OC2c2ccccc2)s1 (centres unmarked) [Example 15] |  |  | < 50 µM | 0.5 |  | 86.6 | 83.4 | 6.63 | 5.97 | reduce SMAD activity | 
CCOC(=O)c1cnc(NC(=O)c2cc(OC)c(OC)c(OC)c2)s1 [Example 16] |  |  |  |  |  | 97.5 | 94 | 89.8 | 85 |  | 
CCOC(=O)c1cnc(NC(=O)c2cc(-c3ccccc3)on2)s1 [Example 17] |  |  |  |  |  | 114 | 116 | 112 | 117 |  | 
O=C(Nc1ncc(C(=O)O)s1)c1cc(-c2ccccc2)on1 [Example 18] |  |  |  |  |  | 107 | 95 | 106 | 113 |  | 
COc1cc(C(=O)Nc2ncc(C(=O)O)s2)cc(OC)c1OC [Example 19] |  |  |  |  |  | 99.2 | 100 | 94.1 | 90.7 |  | 
CCOC(=O)c1cnc(NC(=O)c2cc(Cl)cc(Cl)c2)s1 [Example 20] |  |  |  |  |  | 102 | 110 | 101 | 97.8 |  | 
O=C(Nc1ncc(C(=O)O)s1)c1cc(Cl)cc(Cl)c1 [Example 21] |  |  |  |  |  | 96.2 | 100 | 76.9 | 77.7 |  | 
